Laboratory results: patent publication US20230266302A1, “SYNTHESIS AND USE OF N-BENZYL SULFONAMIDES” (THE UNIVERSITY OF TULSA, priority 2020, published 2023)

How the values were obtained:
Test in all cases: ATP level assay (CellTiter-Glo), percent of control
Type in all cases: cell-based
HDF (normal cells) = conditions: two hour incubation; for activity at 100 µM: 2 h, compound alone, control DMSO, read-out: POC (percent of control) HDF
Description: (§1) In the present method, the method of using the available assays has been modified to measure the short-term effect of compounds of interest on ATP levels in the cells. […] In the modified method, the control and test cells are initially treated with the metabolic inhibitor for a period of about thirty minutes to about four hours. Typically, the treatment of the cells with the metabolic inhibitor is for one hour prior to adding the compound to be screened for anti-cancer properties. However, simultaneous treatment with the metabolic inhibitor and the compound being screened should provide satisfactory results. […] ATP synthesis in cells occurs over multiple biochemical pathways. These pathways are very responsive to metabolic inhibitors and/or changes in available nutrients. By incorporating a metabolic inhibitor which is known to impact certain pathways, the disclosed method provides for measurement of a compound's direct effects on the remaining metabolic pathways available for ATP synthesis in the cell.
(§2) Following treatment of the control and test cells with the metabolic inhibitor, the method calls for addition of the compound to be screened for anti-cancer properties to the cells. Following addition of the compound of interest, the assay is allowed to continue for about one hour to about four hours or depending on the luminescing agent up to eighteen hours. However, approximately 60 minutes will be sufficient to determine the ATP inhibiting effect of the compound to be screened on the cells. Following completion of the selected time period, the ATP level within the cell is determined. ATP levels can be determined by luminescence according to standard measuring procedures, i.e. the luminescence level of the assay from the living cells treated with the two component composition is compared to the luminescence level of the assay from the living cells without the two component composition, i.e., the control experiment. Thus, the ATP levels are determined without killing the cells during the incubation of the cells in the presence of the compound of interest. As a result, the measured reduction in ATP level corresponds directly to the inhibition of the metabolic pathways uninhibited by the metabolic blocker.
(§3) A wide variety of ATP luminescing detection reagents are available commercially. So long as the reagent produces a luminescence in the presence of ATP, the reagent will be suitable for use in the present method. Suitable reagents include but are not limited to any ATP dependent luciferase such as but not limited to firefly luciferase, other modified luciferase based reagents, i.e. luciferase derivatives. According to the rapid method for determining the anti-cancer activity of a compound, a sample of living cells is distributed across a number of testing wells. Typically, 96-well plates are used; however, the number of wells is not critical to the current method. When using a 96-well plate the number of living cells will commonly be about 20,000. The sample wells contain a cell growth medium to promote cell health and growth and an additive to prevent bacterial contamination of the wells. One common example of the cell growth medium is DMEM with 10% FBS as described above. One example of the additive to prevent bacterial contamination is a solution of penicillin G and streptomycin referred to commonly as Pen-Strep. The Pen-Strep solution typically contains 5000 units of penicillin G and 5000 micrograms of streptomycin. Thus, the rapid determination of anti-cancer compounds can be carried out using the following method. • The desired number of cells are distributed in a 96-well plate containing 100 μL DMEM plus 10% FBS with optional Pen-Strep. • After 24 hours, cells are treated with the compound of interest or a 5% solution of dimethyl sulfoxide (DMSO) in water as a control. • The time period for exposure to the compound of interest and the DMSO control will vary depending on the luminescing detection reagent. […]

H293 (kidney cancer) = conditions: two hour incubation; for activity at 100 µM: 2 h, compound alone, control DMSO, read-out: POC (percent of control) H293
Description: as §1, §2, §3

MCF7 (breast cancer) = conditions: two hour incubation; for activity at 100 µM: Homo sapiens, MCF7, 2 h, compound alone, control DMSO, read-out: POC (percent of control) MCF7
Description: as §1, §2, §3

[1] = tested on: MCF10A (non-cancerous breast); conditions: two hour incubation; for activity at 100 µM: Homo sapiens, MCF-10A, 2 h, compound alone, control DMSO, read-out: POC (percent of control) MCF10A
Description: as §1, §2, §3

HeLa (cervical cancer) = conditions: two hour incubation; for activity at 100 µM: Homo sapiens, HeLa, 2 h, compound alone, control DMSO, read-out: POC (percent of control) HeLa
Description: as §1, §2, §3

PC3 (prostate cancer) = conditions: two hour incubation; for activity at 100 µM: 2 h, compound alone, control DMSO, read-out: POC (percent of control) PC3
Description: as §1, §2, §3

T47D (breast cancer) = conditions: two hour incubation; for activity at 100 µM: Homo sapiens, T47D, 2 h, compound alone, control DMSO, read-out: POC (percent of control) T47D
Description: as §1, §2, §3

MDA-MB (breast cancer) = conditions: two hour incubation; for activity at 100 µM: 2 h, compound alone, control DMSO, read-out: POC (percent of control) MDA-MB
Description: as §1, §2, §3

[2] = tested on: BxPC3 (pancreatic cancer); conditions: two hour incubation; for activity at 100 µM: Homo sapiens, BXPC-3, 2 h, compound alone, control DMSO, read-out: POC (percent of control) BxPC3
Description: as §1, §2, §3

SkBr3 (breast cancer) = conditions: two hour incubation; for activity at 100 µM: Homo sapiens, SK-BR-3, 2 h, compound alone, control DMSO, read-out: POC (percent of control) SkBr3
Description: as §1, §2, §3

NCI-H196 (lung cancer) = conditions: two hour incubation; for activity at 100 µM: NCI-H196, 2 h, compound alone, control DMSO, read-out: POC (percent of control) NCI-H196
Description: as §1, §2, §3

[3] = compound 100 uM + 2DG (about 10-20 mM)
[4] = compound 100 uM + rotenone (approximately 1.25 μM)

SMILES | activity at 100 µM (HDF (normal cells)) | POC (percent of control) HDF (HDF (normal cells); [3]) | POC (percent of control) HDF (HDF (normal cells); [4]) | activity at 100 µM (H293 (kidney cancer)) | POC (percent of control) H293 (H293 (kidney cancer); [3]) | POC (percent of control) H293 (H293 (kidney cancer); [4]) | activity at 100 µM (MCF7 (breast cancer)) | POC (percent of control) MCF7 (MCF7 (breast cancer); [3]) | POC (percent of control) MCF7 (MCF7 (breast cancer); [4]) | activity at 100 µM [1] | POC (percent of control) MCF10A [1, 3] | POC (percent of control) MCF10A [1, 4] | activity at 100 µM (HeLa (cervical cancer)) | POC (percent of control) HeLa (HeLa (cervical cancer); [3]) | POC (percent of control) HeLa (HeLa (cervical cancer); [4]) | activity at 100 µM (PC3 (prostate cancer)) | POC (percent of control) PC3 (PC3 (prostate cancer); [3]) | POC (percent of control) PC3 (PC3 (prostate cancer); [4]) | activity at 100 µM (T47D (breast cancer)) | POC (percent of control) T47D (T47D (breast cancer); [3]) | other results
Cc1ccc(S(=O)(=O)NCc2ccc3ncccc3c2)cc1 [Compound 22, 4-methyl-N-(quinolin-6-ylmethyl)benzenesulfonamide] | 89.7% | 76.3% of control | 85.5% of control | 122% | 69.9% of control | 90.9% of control | 113% | 107.1% of control | 96.4% of control | 105% | 70.2% of control | 96.9% of control | 101% | 94.5% of control | 105.2% of control | 93% | 94.5% of control | 108.2% of control | 85.3% | 62.5% of control | POC (percent of control) T47D (T47D (breast cancer); [4]): 109.3% of control; activity at 100 µM (MDA-MB (breast cancer)): 96.7%; POC (percent of control) MDA-MB (MDA-MB (breast cancer); [3]): 86.5% of control; POC (percent of control) MDA-MB (MDA-MB (breast cancer); [4]): 87.1% of control; activity at 100 µM [2]: 99.1%; POC (percent of control) BxPC3 [2, 4]: 70.8% of control; activity at 100 µM (SkBr3 (breast cancer)): 106%; POC (percent of control) SkBr3 (SkBr3 (breast cancer); [3]): 83.5% of control; POC (percent of control) SkBr3 (SkBr3 (breast cancer); [4]): 93.5% of control; activity at 100 µM (NCI-H196 (lung cancer)): 117%; POC (percent of control) NCI-H196 (NCI-H196 (lung cancer); [3]): 94.6% of control; POC (percent of control) NCI-H196 (NCI-H196 (lung cancer); [4]): 94.2% of control
Cc1ccc(S(=O)(=O)NCc2nn(C)c3ccccc23)cc1 [Compound 8, 4-methyl-N-[(1-methyl-1H-indazol-3-yl)methyl]benzenesulfonamide] | 99% | 91.3% of control | 88.3% of control | 112% | 83.5% of control | 87.1% of control | 140% | 86.2% of control | 116.7% of control | 94.6% | 77.9% of control | 94.4% of control | 106% | 80.8% of control | 99.1% of control | 109% | 87.9% of control | 108.3% of control | 64.1% | 94.6% of control | POC (percent of control) T47D (T47D (breast cancer); [4]): 101.2% of control; activity at 100 µM (MDA-MB (breast cancer)): 93.9%; POC (percent of control) MDA-MB (MDA-MB (breast cancer); [3]): 91.7% of control; POC (percent of control) MDA-MB (MDA-MB (breast cancer); [4]): 86.2% of control; activity at 100 µM [2]: 106%; POC (percent of control) BxPC3 [2, 3]: 87.1% of control; POC (percent of control) BxPC3 [2, 4]: 93.5% of control; activity at 100 µM (SkBr3 (breast cancer)): 88.8%; POC (percent of control) SkBr3 (SkBr3 (breast cancer); [3]): 97.1% of control; POC (percent of control) SkBr3 (SkBr3 (breast cancer); [4]): 103.7% of control; activity at 100 µM (NCI-H196 (lung cancer)): 91.1%; POC (percent of control) NCI-H196 (NCI-H196 (lung cancer); [3]): 99.2% of control; POC (percent of control) NCI-H196 (NCI-H196 (lung cancer); [4]): 95.1% of control
O=[N+]([O-])c1cccc(S(=O)(=O)NCc2c[nH]c3ccccc23)c1 [Compound 25, N-(1H-indol-3-ylmethyl)-3-nitrobenzenesulfonamide] | 79.2% | 93.6% of control | 95.5% of control | 99.7% | 79.6% of control | 68.8% of control | 112% | 92.9% of control | 104.2% of control | 95.7% | 98.3% of control | 80.4% of control | 89.4% | 90.8% of control | 95.6% of control | 60.2% | 96.8% of control | 80.1% of control | 94.4% | 88.9% of control | POC (percent of control) T47D (T47D (breast cancer); [4]): 86.7% of control; activity at 100 µM (MDA-MB (breast cancer)): 103%; POC (percent of control) MDA-MB (MDA-MB (breast cancer); [3]): 86.2% of control; POC (percent of control) MDA-MB (MDA-MB (breast cancer); [4]): 88.8% of control; activity at 100 µM [2]: 85.1%; POC (percent of control) BxPC3 [2, 3]: 71.5% of control; POC (percent of control) BxPC3 [2, 4]: 78.2% of control; activity at 100 µM (SkBr3 (breast cancer)): 112%; POC (percent of control) SkBr3 (SkBr3 (breast cancer); [3]): 88.2% of control; POC (percent of control) SkBr3 (SkBr3 (breast cancer); [4]): 104.1% of control; activity at 100 µM (NCI-H196 (lung cancer)): 305%; POC (percent of control) NCI-H196 (NCI-H196 (lung cancer); [3]): 92.9% of control; POC (percent of control) NCI-H196 (NCI-H196 (lung cancer); [4]): 83% of control
